Measured values published in US20260262643A1, “HERBICIDAL BENZOXAZINES” (FMC CORPORATION, priority 2022, published 2026).

Tests used:
[1] = system: wheat; experiment: Test A preemergence; assay type: in vivo, Triticum aestivum; conditions: visual injury after 10 days, 0 to 100 scale, 0 is no effect, 100 is complete control
Procedure, shortened: (§1)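 Weeds and crops in loam–sand blend were sprayed preemergence onto soil or postemergence at 2–10 cm (one- to two-leaf stage). Test chemicals were in a non-phytotoxic solvent with surfactant. After 10 days in the greenhouse, injury was rated visually against untreated controls on a 0 (no effect) to 100 (complete control) scale.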

[2] = system: pigweed, palmer; experiment: Test A preemergence; assay type: in vivo, Amaranthus palmeri; conditions: visual injury after 10 days, 0 to 100 scale, 0 is no effect, 100 is complete control
Procedure, shortened: as §1

[3] = system: horseweed; experiment: Test A postemergence; assay type: in vivo, Erigeron canadensis; conditions: postemergence, 10 days; for Horseweed plant response rating: 125 g ai/ha, 0 to 100 scale, 0 no effect, 100 complete control; for Plant response rating, Horseweed: 500 g ai/ha, visual injury, 0 to 100 scale (0 no effect, 100 complete control)
Procedure, shortened: as §1

[4] = system: blackgrass; experiment: Test A postemergence; assay type: in vivo, Alopecurus myosuroides; conditions: postemergence, 10 days; for Blackgrass plant response rating: 125 g ai/ha, 0 to 100 scale, 0 no effect, 100 complete control; for Plant response rating, Blackgrass: 500 g ai/ha, visual injury, 0 to 100 scale (0 no effect, 100 complete control)
Procedure, shortened: as §1

[5] = system: barnyardgrass; experiment: Test A postemergence; assay type: in vivo, Echinochloa crusgalli; conditions: postemergence, 10 days; for Barnyardgrass plant response rating: 125 g ai/ha, 0 to 100 scale, 0 no effect, 100 complete control; for Plant response rating, Barnyardgrass: 500 g ai/ha, visual injury, 0 to 100 scale (0 no effect, 100 complete control)
Procedure, shortened: as §1

[6] = system: barnyardgrass; experiment: Test A preemergence; assay type: in vivo, Echinochloa crusgalli; conditions: visual injury after 10 days, 0 to 100 scale, 0 is no effect, 100 is complete control
Procedure, shortened: as §1

[7] = system: oat, wild; experiment: Test A postemergence; assay type: in vivo, Avena fatua; conditions: postemergence, 10 days; for Oat, Wild plant response rating: 125 g ai/ha, 0 to 100 scale, 0 no effect, 100 complete control; for Plant response rating, Oat, Wild: 500 g ai/ha, visual injury, 0 to 100 scale (0 no effect, 100 complete control)
Procedure, shortened: as §1

[8] = system: soybean; experiment: Test A preemergence; assay type: in vivo, Glycine max; conditions: visual injury after 10 days, 0 to 100 scale, 0 is no effect, 100 is complete control
Procedure, shortened: as §1

[9] = system: wheat; experiment: Test A postemergence; assay type: in vivo, Triticum aestivum; conditions: postemergence, 10 days; for Wheat plant response rating: 125 g ai/ha, 0 to 100 scale, 0 no effect, 100 complete control; for Plant response rating, Wheat: 500 g ai/ha, visual injury, 0 to 100 scale (0 no effect, 100 complete control)
Procedure, shortened: as §1

[10] = system: rice; experiment: Test B flooded paddy test; assay type: in vivo, Oryza sativa; conditions: 250 g ai/ha, Flood, 13 days, 0 to 100 scale (0 no effect, 100 complete control)
Procedure, shortened: (§2)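 Application into standing water (3 cm above soil) at the two-leaf stage; flood depth held constant. Evaluation: day 13, visual comparison with controls, 0 = no injury, 100 = complete control.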

[11] = system: pigweed, palmer; experiment: Test A postemergence; assay type: in vivo, Amaranthus palmeri; conditions: postemergence, 10 days; for Pigweed, Palmer plant response rating: 125 g ai/ha, 0 to 100 scale, 0 no effect, 100 complete control; for Plant response rating, Pigweed, Palmer: 500 g ai/ha, visual injury, 0 to 100 scale (0 no effect, 100 complete control)
Procedure, shortened: as §1

[12] = system: corn; experiment: Test A postemergence; assay type: in vivo, Zea mays; conditions: postemergence, 10 days; for Corn plant response rating: 125 g ai/ha, 0 to 100 scale, 0 no effect, 100 complete control; for Plant response rating, Corn: 500 g ai/ha, visual injury, 0 to 100 scale (0 no effect, 100 complete control)
Procedure, shortened: as §1

[13] = system: corn; experiment: Test A preemergence; assay type: in vivo, Zea mays; conditions: visual injury after 10 days, 0 to 100 scale, 0 is no effect, 100 is complete control
Procedure, shortened: as §1

[14] = system: foxtail, giant; experiment: Test A preemergence; assay type: in vivo, Setaria faberi; conditions: visual injury after 10 days, 0 to 100 scale, 0 is no effect, 100 is complete control
Procedure, shortened: as §1

[15] = system: ragweed; experiment: Test A preemergence; assay type: in vivo, Ambrosia artemisiifolia; conditions: visual injury after 10 days, 0 to 100 scale, 0 is no effect, 100 is complete control
Procedure, shortened: as §1

[16] = system: kochia; experiment: Test A postemergence; assay type: in vivo, Bassia scoparia; conditions: postemergence, 10 days; for Kochia plant response rating: 125 g ai/ha, 0 to 100 scale, 0 no effect, 100 complete control; for Plant response rating, Kochia: 500 g ai/ha, visual injury, 0 to 100 scale (0 no effect, 100 complete control)
Procedure, shortened: as §1

[17] = system: ducksalad; experiment: Test B flooded paddy test; assay type: in vivo, Heteranthera limosa; conditions: 250 g ai/ha, Flood, 13 days, 0 to 100 scale (0 no effect, 100 complete control)
Procedure, shortened: as §2

[18] = system: sedge, umbrella; experiment: Test B flooded paddy test; assay type: in vivo, Cyperus difformis; conditions: 250 g ai/ha, Flood, 13 days, 0 to 100 scale (0 no effect, 100 complete control)
Procedure, shortened: as §2

[19] = system: barnyardgrass; experiment: Test B flooded paddy test; assay type: in vivo, Echinochloa crus-galli; conditions: 250 g ai/ha, Flood, 13 days, 0 to 100 scale (0 no effect, 100 complete control)
Procedure, shortened: as §2

[20] = system: ragweed; experiment: Test A postemergence; assay type: in vivo, Ambrosia artemisiifolia; conditions: postemergence, 10 days; for Ragweed plant response rating: 125 g ai/ha, 0 to 100 scale, 0 no effect, 100 complete control; for Plant response rating, Ragweed: 500 g ai/ha, visual injury, 0 to 100 scale (0 no effect, 100 complete control)
Procedure, shortened: as §1

[21] = system: ryegrass, Italian; experiment: Test A preemergence; assay type: in vivo, Lolium multiflorum; conditions: visual injury after 10 days, 0 to 100 scale, 0 is no effect, 100 is complete control
Procedure, shortened: as §1

[22] = system: galium; experiment: Test A postemergence; assay type: in vivo, Galium aparine; conditions: postemergence, 10 days; for Galium plant response rating: 125 g ai/ha, 0 to 100 scale, 0 no effect, 100 complete control; for Plant response rating, Galium: 500 g ai/ha, visual injury, 0 to 100 scale (0 no effect, 100 complete control)
Procedure, shortened: as §1

[23] = system: ryegrass, Italian; experiment: Test A postemergence; assay type: in vivo, Lolium multiflorum; conditions: postemergence, 10 days; for Ryegrass, Italian plant response rating: 125 g ai/ha, 0 to 100 scale, 0 no effect, 100 complete control; for Plant response rating, Ryegrass, Italian: 500 g ai/ha, visual injury, 0 to 100 scale (0 no effect, 100 complete control)
Procedure, shortened: as §1

[24] = system: soybean; experiment: Test A postemergence; assay type: in vivo, Glycine max; conditions: postemergence, 10 days; for Soybean plant response rating: 125 g ai/ha, 0 to 100 scale, 0 no effect, 100 complete control; for Plant response rating, Soybean: 500 g ai/ha, visual injury, 0 to 100 scale (0 no effect, 100 complete control)
Procedure, shortened: as §1

[25] = system: foxtail, giant; experiment: Test A postemergence; assay type: in vivo, Setaria faberi; conditions: postemergence, 10 days; for Foxtail, Giant plant response rating: 125 g ai/ha, 0 to 100 scale, 0 no effect, 100 complete control; for Plant response rating, Foxtail, Giant: 500 g ai/ha, visual injury, 0 to 100 scale (0 no effect, 100 complete control)
Procedure, shortened: as §1

[26] = system: blackgrass; experiment: Test A preemergence; assay type: in vivo, Alopecurus myosuroides; conditions: visual injury after 10 days, 0 to 100 scale, 0 is no effect, 100 is complete control
Procedure, shortened: as §1

[27] = system: oat, wild; experiment: Test A preemergence; assay type: in vivo, Avena fatua; conditions: visual injury after 10 days, 0 to 100 scale, 0 is no effect, 100 is complete control
Procedure, shortened: as §1

[28] = system: kochia; experiment: Test A preemergence; assay type: in vivo, Bassia scoparia; conditions: visual injury after 10 days, 0 to 100 scale, 0 is no effect, 100 is complete control
Procedure, shortened: as §1

COCCc1ncn(-c2cccc(C(=O)N3C[C@H](C)Oc4c(C)cccc43)c2)n1 [Compound 113]
Plant response rating, Wheat ([1]; 125 g ai/ha): 80
Plant response rating, Wheat ([1]; 500 g ai/ha): 90
Plant response rating, Pigweed, Palmer ([2]; 125 g ai/ha): 90
Plant response rating, Pigweed, Palmer ([2]; 500 g ai/ha): 100
Horseweed plant response rating [3]: 10
Plant response rating, Horseweed [3]: 30
Blackgrass plant response rating [4]: 80
Plant response rating, Blackgrass [4]: 90
Barnyardgrass plant response rating [5]: 60
Plant response rating, Barnyardgrass [5]: 90
Plant response rating, Barnyardgrass ([6]; 125 g ai/ha): 90
Plant response rating, Barnyardgrass ([6]; 500 g ai/ha): 100
Oat, Wild plant response rating [7]: 70
Plant response rating, Oat, Wild [7]: 80
Plant response rating, Soybean ([8]; 125 g ai/ha): 30
Plant response rating, Soybean ([8]; 500 g ai/ha): 80
Wheat plant response rating [9]: 50
Plant response rating, Wheat [9]: 80
Plant response rating, Rice [10]: 0
Pigweed, Palmer plant response rating [11]: 30
Plant response rating, Pigweed, Palmer [11]: 80
Corn plant response rating [12]: 90
Plant response rating, Corn [12]: 90
Plant response rating, Corn ([13]; 125 g ai/ha): 20
Plant response rating, Corn ([13]; 500 g ai/ha): 90
Plant response rating, Foxtail, Giant ([14]; 125 g ai/ha): 100
Plant response rating, Foxtail, Giant ([14]; 500 g ai/ha): 100
Plant response rating, Ragweed ([15]; 125 g ai/ha): 0
Plant response rating, Ragweed ([15]; 500 g ai/ha): 70
Kochia plant response rating [16]: 40
Plant response rating, Kochia [16]: 90
Plant response rating, Ducksalad [17]: 65
Plant response rating, Sedge, Umbrella [18]: 80
Plant response rating, Barnyardgrass [19]: 45
Ragweed plant response rating [20]: 50
Plant response rating, Ragweed [20]: 50
Plant response rating, Ryegrass, Italian ([21]; 125 g ai/ha): 90
Plant response rating, Ryegrass, Italian ([21]; 500 g ai/ha): 100
Galium plant response rating [22]: 90
Plant response rating, Galium [22]: 100
Ryegrass, Italian plant response rating [23]: 50
Plant response rating, Ryegrass, Italian [23]: 100
Soybean plant response rating [24]: 100
Plant response rating, Soybean [24]: 100
Foxtail, Giant plant response rating [25]: 60
Plant response rating, Foxtail, Giant [25]: 90
Plant response rating, Blackgrass ([26]; 125 g ai/ha): 70
Plant response rating, Blackgrass ([26]; 500 g ai/ha): 90
Plant response rating, Oat, Wild ([27]; 125 g ai/ha): 80
Plant response rating, Oat, Wild ([27]; 500 g ai/ha): 90
Plant response rating, Kochia ([28]; 125 g ai/ha): 60
Plant response rating, Kochia ([28]; 500 g ai/ha): 100

C[C@H]1CN(C(=O)c2cc(Br)cc(-n3cncn3)c2)c2cccc(Cl)c2O1 [Compound 114]
Plant response rating, Wheat ([1]; 125 g ai/ha): 20
Plant response rating, Wheat ([1]; 500 g ai/ha): 50
Plant response rating, Pigweed, Palmer ([2]; 125 g ai/ha): 50
Plant response rating, Pigweed, Palmer ([2]; 500 g ai/ha): 90
Horseweed plant response rating [3]: 0
Plant response rating, Horseweed [3]: 0
Blackgrass plant response rating [4]: 50
Plant response rating, Blackgrass [4]: 90
Barnyardgrass plant response rating [5]: 10
Plant response rating, Barnyardgrass [5]: 70
Plant response rating, Barnyardgrass ([6]; 125 g ai/ha): 30
Plant response rating, Barnyardgrass ([6]; 500 g ai/ha): 90
Oat, Wild plant response rating [7]: 0
Plant response rating, Oat, Wild [7]: 40
Plant response rating, Soybean ([8]; 125 g ai/ha): 0
Plant response rating, Soybean ([8]; 500 g ai/ha): 0
Wheat plant response rating [9]: 10
Plant response rating, Wheat [9]: 40
Plant response rating, Rice [10]: 0
Pigweed, Palmer plant response rating [11]: 40
Plant response rating, Pigweed, Palmer [11]: 100
Corn plant response rating [12]: 50
Plant response rating, Corn [12]: 80
Plant response rating, Corn ([13]; 125 g ai/ha): 0
Plant response rating, Corn ([13]; 500 g ai/ha): 0
Plant response rating, Foxtail, Giant ([14]; 125 g ai/ha): 80
Plant response rating, Foxtail, Giant ([14]; 500 g ai/ha): 100
Plant response rating, Ragweed ([15]; 125 g ai/ha): 0
Plant response rating, Ragweed ([15]; 500 g ai/ha): 0
Kochia plant response rating [16]: 40
Plant response rating, Kochia [16]: 80
Plant response rating, Ducksalad [17]: 0
Plant response rating, Sedge, Umbrella [18]: 0
Plant response rating, Barnyardgrass [19]: 0
Ragweed plant response rating [20]: 0
Plant response rating, Ragweed [20]: 0
Plant response rating, Ryegrass, Italian ([21]; 125 g ai/ha): 50
Plant response rating, Ryegrass, Italian ([21]; 500 g ai/ha): 90
Galium plant response rating [22]: 60
Plant response rating, Galium [22]: 70
Ryegrass, Italian plant response rating [23]: 50
Plant response rating, Ryegrass, Italian [23]: 70
Soybean plant response rating [24]: 60
Plant response rating, Soybean [24]: 100
Foxtail, Giant plant response rating [25]: 70
Plant response rating, Foxtail, Giant [25]: 90
Plant response rating, Blackgrass ([26]; 125 g ai/ha): 30
Plant response rating, Blackgrass ([26]; 500 g ai/ha): 70
Plant response rating, Oat, Wild ([27]; 125 g ai/ha): 0
Plant response rating, Oat, Wild ([27]; 500 g ai/ha): 20
Plant response rating, Kochia ([28]; 125 g ai/ha): 0
Plant response rating, Kochia ([28]; 500 g ai/ha): 20
